As a reminder, the inhibition is the relative decrease from the control value, in per cent.

One assay deals with T1, CAT1 (cationic amino acid transporter 1, CAT1/SLC7A1) (Homo sapiens, UniProt P30825).
T1 construct: full-length human transporter stably transfected in HEK cells (HEK-CAT1); net uptake against HEK-VC vector control cells
T1 sequence (P30825 whole entry): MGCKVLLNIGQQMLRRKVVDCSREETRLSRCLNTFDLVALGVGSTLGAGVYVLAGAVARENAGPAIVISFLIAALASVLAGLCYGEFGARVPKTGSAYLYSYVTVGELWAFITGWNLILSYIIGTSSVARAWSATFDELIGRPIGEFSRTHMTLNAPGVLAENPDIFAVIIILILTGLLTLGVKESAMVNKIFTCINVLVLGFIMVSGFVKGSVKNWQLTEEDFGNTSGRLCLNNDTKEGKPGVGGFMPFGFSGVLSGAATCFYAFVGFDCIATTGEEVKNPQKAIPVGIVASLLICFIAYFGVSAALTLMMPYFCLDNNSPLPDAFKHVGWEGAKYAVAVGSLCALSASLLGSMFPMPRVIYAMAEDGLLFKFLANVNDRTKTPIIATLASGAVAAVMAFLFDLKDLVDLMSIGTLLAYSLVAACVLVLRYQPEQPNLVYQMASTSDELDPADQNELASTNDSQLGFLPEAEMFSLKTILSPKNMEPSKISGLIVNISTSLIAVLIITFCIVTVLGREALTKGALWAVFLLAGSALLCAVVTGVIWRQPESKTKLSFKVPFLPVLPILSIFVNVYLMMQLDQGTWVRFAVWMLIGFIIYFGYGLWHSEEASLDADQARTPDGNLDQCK
Description: cell-based. Further details: species or system HEK-CAT1 (HEK293 stably transfected); Inhibition of net CAT1-mediated [3H]-L-arginine (100 uM) uptake, 5 min, scintillation counting, vector control subtracted. The conditions noted are these: HEK293; L-arginine 100 uM as substrate; read-out: % Inhibition of L-arginine uptake at 20 µM. Put shortly: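 HEK-CAT1 and vector-control HEK-VC cells took up [3H]-L-arginine (100 μM) for 5 min, with or without drug at 20 or 200 µM; [3H]-L-homoarginine or [3H]-ADMA uptake ran 2.5 min. Net uptake is CAT1 minus VC cells, and inhibition (%) = 100 − (V/V0 × 100). Negative values mean stimulated uptake.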
On to `N[C@@H](Cc1ccc(O)c(O)c1)C(=O)O` [Levodopa], for which the inhibition at 20 µM is 8.1 ± 3.1%.

For the molecule `NCCCC[C@H](N[C@@H](CCc1ccccc1)C(=O)O)C(=O)N1CCC[C@H]1C(=O)O` [Lisinopril], the inhibition at 20 µM amounted to 4.6 ± 3.8%.

Regarding `CN(C)C(=O)C(CCN1CCC(O)(c2ccc(Cl)cc2)CC1)(c1ccccc1)c1ccccc1` [Loperamide], the inhibition at 20 µM was found to be 16.9 ± 2.3%.

Turning to `CCCCc1nc(Cl)c(CO)n1Cc1ccc(-c2ccccc2-c2nnn[nH]2)cc1` [Losartan], the inhibition at 20 µM was 13.5 ± 1.7%.

For `CC12CC3CC(C)(C1)CC(N)(C3)C2` [Memantine], the inhibition at 20 µM is -3.2 ± 3.9%.

For `C[C@@H](O)[C@H]1C(=O)N2C(C(=O)O)=C(S[C@@H]3CN[C@H](C(=O)N(C)C)C3)[C@H](C)[C@H]12` [Meropenem], the inhibition at 20 µM was -19.1 ± 9.3%.

Turning to `CN(C)C(=N)NC(=N)N` [Metformin], the inhibition at 20 µM was -20.7 ± 14.1%.

As for `CN(Cc1cnc2nc(N)nc(N)c2n1)c1ccc(C(=O)N[C@@H](CCC(=O)O)C(=O)O)cc1` [Methotrexate], the inhibition at 20 µM was 22.3 ± 0.8%.

For `COc1ccc(OC)c(C(O)C(C)N)c1` (stereo not drawn) [Methoxamine], the inhibition at 20 µM is 24.5 ± 10.5%.

Turning to `CCN(CC)CCNC(=O)c1cc(Cl)c(N)cc1OC` [Metoclopramide], the inhibition at 20 µM was 7.5 ± 2.1%.

The assay is the same for the next values; noted with them: HEK293; L-arginine 100 uM as substrate; read-out: % Inhibition of L-arginine uptake at 200 µM.
On to `N[C@@H](Cc1ccc(O)c(O)c1)C(=O)O` [Levodopa], for which the inhibition at 200 µM worked out at 31.4 ± 0.6%.

Consider `NCCCC[C@H](N[C@@H](CCc1ccccc1)C(=O)O)C(=O)N1CCC[C@H]1C(=O)O` [Lisinopril], for which the inhibition at 200 µM was -12.6 ± 5%.

Regarding `CN(C)C(=O)C(CCN1CCC(O)(c2ccc(Cl)cc2)CC1)(c1ccccc1)c1ccccc1` [Loperamide], the inhibition at 200 µM was -3.6 ± 2.1%.

Consider `CCCCc1nc(Cl)c(CO)n1Cc1ccc(-c2ccccc2-c2nnn[nH]2)cc1` [Losartan], for which the inhibition at 200 µM is -34.8 ± 1.4%.

Consider `CC12CC3CC(C)(C1)CC(N)(C3)C2` [Memantine], for which the inhibition at 200 µM is -21.7 ± 5.1%.

As to `C[C@@H](O)[C@H]1C(=O)N2C(C(=O)O)=C(S[C@@H]3CN[C@H](C(=O)N(C)C)C3)[C@H](C)[C@H]12` [Meropenem], the inhibition at 200 µM was -13.4 ± 4.9%.

For the molecule `CN(C)C(=N)NC(=N)N` [Metformin], the inhibition at 200 µM is -23.1 ± 1.4%.

With `CN(Cc1cnc2nc(N)nc(N)c2n1)c1ccc(C(=O)N[C@@H](CCC(=O)O)C(=O)O)cc1` [Methotrexate], the inhibition at 200 µM was -7.1 ± 2.1%.

With `COc1ccc(OC)c(C(O)C(C)N)c1` (stereo not drawn) [Methoxamine], the inhibition at 200 µM was -23.9 ± 3.7%.

As to `CCN(CC)CCNC(=O)c1cc(Cl)c(N)cc1OC` [Metoclopramide], the inhibition at 200 µM amounted to 2.5 ± 3.5%.

The next assay addresses T1, CAT1 (cationic amino acid transporter 1, CAT1/SLC7A1). Description: cell-based. Also noted: species or system HEK-CAT1 (HEK293 stably transfected); Inhibition of net CAT1-mediated [3H]-L-homoarginine (1 uM) uptake, 2.5 min, scintillation counting, vector control subtracted. Conditions: HEK293; L-homoarginine 1 uM as substrate; read-out: % Inhibition of L-homoarginine uptake at 20 µM. Put shortly: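 HEK-CAT1 cells with HEK-VC vector controls; [3H]-L-homoarginine (1 μM) uptake over 2.5 min with or without test compound at 20 µM or 200 µM. Net CAT1 uptake (CAT1 minus VC) gives inhibition (%) = 100 – (V/V0 × 100). Negative values mean stimulated uptake; n = 6–9 from at least two independent experiments.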
In the case of `N[C@@H](Cc1ccc(O)c(O)c1)C(=O)O` [Levodopa], the inhibition at 20 µM was determined as 8.2 ± 3%.

Regarding `NCCCC[C@H](N[C@@H](CCc1ccccc1)C(=O)O)C(=O)N1CCC[C@H]1C(=O)O` [Lisinopril], the inhibition at 20 µM came to 6.4 ± 3.1%.

As to `CN(C)C(=O)C(CCN1CCC(O)(c2ccc(Cl)cc2)CC1)(c1ccccc1)c1ccccc1` [Loperamide], the inhibition at 20 µM amounted to 18.9 ± 0.2%.

For `CCCCc1nc(Cl)c(CO)n1Cc1ccc(-c2ccccc2-c2nnn[nH]2)cc1` [Losartan], the inhibition at 20 µM is 11 ± 0.5%.

Regarding `CC12CC3CC(C)(C1)CC(N)(C3)C2` [Memantine], the inhibition at 20 µM is -3.9 ± 3.4%.

On to `C[C@@H](O)[C@H]1C(=O)N2C(C(=O)O)=C(S[C@@H]3CN[C@H](C(=O)N(C)C)C3)[C@H](C)[C@H]12` [Meropenem], for which the inhibition at 20 µM is -19.3 ± 9.1%.

In the case of `CN(C)C(=N)NC(=N)N` [Metformin], the inhibition at 20 µM was -20.4 ± 13.7%.

Take `CN(Cc1cnc2nc(N)nc(N)c2n1)c1ccc(C(=O)N[C@@H](CCC(=O)O)C(=O)O)cc1` [Methotrexate]: the inhibition at 20 µM stood at 19.5 ± 1%.

With `COc1ccc(OC)c(C(O)C(C)N)c1` (stereo not drawn) [Methoxamine], the inhibition at 20 µM is 0.7 ± 11.9%.

On to `CCN(CC)CCNC(=O)c1cc(Cl)c(N)cc1OC` [Metoclopramide], for which the inhibition at 20 µM was -6.3 ± 1.4%.

Staying with this assay, now noted: HEK293; L-homoarginine 1 uM as substrate; read-out: % Inhibition of L-homoarginine uptake at 200 µM.
Turning to `N[C@@H](Cc1ccc(O)c(O)c1)C(=O)O` [Levodopa], the inhibition at 200 µM worked out at 30.4 ± 0.2%.

Take `NCCCC[C@H](N[C@@H](CCc1ccccc1)C(=O)O)C(=O)N1CCC[C@H]1C(=O)O` [Lisinopril]: the inhibition at 200 µM was -11.4 ± 3.8%.

With `CN(C)C(=O)C(CCN1CCC(O)(c2ccc(Cl)cc2)CC1)(c1ccccc1)c1ccccc1` [Loperamide], the inhibition at 200 µM was -2.7 ± 3.9%.

With `CCCCc1nc(Cl)c(CO)n1Cc1ccc(-c2ccccc2-c2nnn[nH]2)cc1` [Losartan], the inhibition at 200 µM is -27.1 ± 2%.

`CC12CC3CC(C)(C1)CC(N)(C3)C2` [Memantine]: the inhibition at 200 µM was -16.6 ± 0.8%.

As to `C[C@@H](O)[C@H]1C(=O)N2C(C(=O)O)=C(S[C@@H]3CN[C@H](C(=O)N(C)C)C3)[C@H](C)[C@H]12` [Meropenem], the inhibition at 200 µM was -13.6 ± 4.6%.

For the molecule `CN(C)C(=N)NC(=N)N` [Metformin], the inhibition at 200 µM was -18.8 ± 1.3%.

Regarding `CN(Cc1cnc2nc(N)nc(N)c2n1)c1ccc(C(=O)N[C@@H](CCC(=O)O)C(=O)O)cc1` [Methotrexate], the inhibition at 200 µM was -6.8 ± 0.9%.

For `COc1ccc(OC)c(C(O)C(C)N)c1` (stereo not drawn) [Methoxamine], the inhibition at 200 µM was -23.9 ± 2.1%.

Consider `CCN(CC)CCNC(=O)c1cc(Cl)c(N)cc1OC` [Metoclopramide], for which the inhibition at 200 µM worked out at 1.4 ± 3.2%.

The target is the same in another assay. The assay can be described thus: cell-based. Also noted: species or system HEK-CAT1 (HEK293 stably transfected); Inhibition of net CAT1-mediated [3H]-ADMA (1 uM) uptake, 2.5 min, scintillation counting, vector control subtracted. Conditions: HEK293; ADMA 1 uM as substrate; read-out: % Inhibition of ADMA uptake at 20 µM. Summed up:
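HEK cells expressing CAT1 and vector-control cells took up [^3H]-L-arginine for 5 min, or [^3H]-L-homoarginine or [^3H]-ADMA (1 μM) for 2.5 min, with or without drug at 20 or 200 µM. Net CAT1 uptake was CAT1 cells minus control cells, and inhibition (%) = 100 − V/V0×100. Negative values mean stimulation; n = 6–9.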
Turning to `N[C@@H](Cc1ccc(O)c(O)c1)C(=O)O` [Levodopa], the inhibition at 20 µM came to 28.1 ± 0.9%.

On to `NCCCC[C@H](N[C@@H](CCc1ccccc1)C(=O)O)C(=O)N1CCC[C@H]1C(=O)O` [Lisinopril], for which the inhibition at 20 µM came to 1.6 ± 1.9%.

Consider `CN(C)C(=O)C(CCN1CCC(O)(c2ccc(Cl)cc2)CC1)(c1ccccc1)c1ccccc1` [Loperamide], for which the inhibition at 20 µM is 17.6 ± 1.6%.

Take `CCCCc1nc(Cl)c(CO)n1Cc1ccc(-c2ccccc2-c2nnn[nH]2)cc1` [Losartan]: the inhibition at 20 µM is 7 ± 3.8%.

On to `CC12CC3CC(C)(C1)CC(N)(C3)C2` [Memantine], for which the inhibition at 20 µM was found to be 14.8 ± 2.6%.

On to `C[C@@H](O)[C@H]1C(=O)N2C(C(=O)O)=C(S[C@@H]3CN[C@H](C(=O)N(C)C)C3)[C@H](C)[C@H]12` [Meropenem], for which the inhibition at 20 µM came out at 0.1 ± 3.2%.

In the case of `CN(C)C(=N)NC(=N)N` [Metformin], the inhibition at 20 µM was -8 ± 4.3%.

In the case of `CN(Cc1cnc2nc(N)nc(N)c2n1)c1ccc(C(=O)N[C@@H](CCC(=O)O)C(=O)O)cc1` [Methotrexate], the inhibition at 20 µM was 5.4 ± 4.3%.

Consider `COc1ccc(OC)c(C(O)C(C)N)c1` (stereo not drawn) [Methoxamine], for which the inhibition at 20 µM stood at 0.7 ± 11.9%.

In the case of `CCN(CC)CCNC(=O)c1cc(Cl)c(N)cc1OC` [Metoclopramide], the inhibition at 20 µM was -3.2 ± 2.1%.

Staying with this assay, now noted: HEK293; ADMA 1 uM as substrate; read-out: % Inhibition of ADMA uptake at 200 µM.
On to `N[C@@H](Cc1ccc(O)c(O)c1)C(=O)O` [Levodopa], for which the inhibition at 200 µM was -6 ± 0.5%.

`NCCCC[C@H](N[C@@H](CCc1ccccc1)C(=O)O)C(=O)N1CCC[C@H]1C(=O)O` [Lisinopril]: the inhibition at 200 µM turned out to be 15.7 ± 0.8%.

As for `CN(C)C(=O)C(CCN1CCC(O)(c2ccc(Cl)cc2)CC1)(c1ccccc1)c1ccccc1` [Loperamide], the inhibition at 200 µM is 1.4 ± 2.1%.

Turning to `CCCCc1nc(Cl)c(CO)n1Cc1ccc(-c2ccccc2-c2nnn[nH]2)cc1` [Losartan], the inhibition at 200 µM amounted to 12.9 ± 4.1%.

Take `CC12CC3CC(C)(C1)CC(N)(C3)C2` [Memantine]: the inhibition at 200 µM is -9.6 ± 1.8%.

With `C[C@@H](O)[C@H]1C(=O)N2C(C(=O)O)=C(S[C@@H]3CN[C@H](C(=O)N(C)C)C3)[C@H](C)[C@H]12` [Meropenem], the inhibition at 200 µM amounted to 12.1 ± 5.1%.

Regarding `CN(C)C(=N)NC(=N)N` [Metformin], the inhibition at 200 µM is -8.4 ± 3.1%.

For the molecule `CN(Cc1cnc2nc(N)nc(N)c2n1)c1ccc(C(=O)N[C@@H](CCC(=O)O)C(=O)O)cc1` [Methotrexate], the inhibition at 200 µM is 9.9 ± 4.5%.

Consider `COc1ccc(OC)c(C(O)C(C)N)c1` (stereo not drawn) [Methoxamine], for which the inhibition at 200 µM stood at 1.8 ± 0.9%.

For `CCN(CC)CCNC(=O)c1cc(Cl)c(N)cc1OC` [Metoclopramide], the inhibition at 200 µM was 4.2 ± 9.4%.

These data come from article PMC9217908, “Screening of commonly prescribed drugs for effects on the CAT1-mediated transport of L-arginine and arginine derivatives” (Amino Acids, 2022).
